From the SangsterLogP compilation come the findings set out here.

Take `CCC(C)N1C(=O)C(=O)c2ccccc2C1=O` (configuration not stated): the logP (usually a log measure of how a compound divides between an organic and an aqueous phase) was determined as 2.15. As for `CCN1C(=O)C(=O)c2c(OC)cccc2C1=O`, the logP worked out at 0.9. Under `CCN1C(=O)C(=O)c2ccc(OC)cc2C1=O` stands 1.49; under `CCN1C(=O)C(=O)c2ccccc2C1=O`, 1.13.

On to `CCN1C(=O)C(=O)c2c(C(N)=O)cccc2C1=O`, for which the log partition coefficient (logP) is -0.5. In turn, `CCN1C(=O)C(=O)c2cc3ccccc3cc2C1=O` came in with a logP of 2.46.

In turn, `CN1C(=O)C(=O)c2ccccc2C1=O` showed a logP of 0.6. Regarding `CC(C)N1C(=O)C(=O)c2ccccc2C1=O`, the lipophilicity (logP) was determined as 1.6. `CCN1C(=O)C(=O)c2cccc(OC)c2C1=O` returned a logP of 0.94. Compound `CC(C)CN1C(=O)C(=O)c2ccccc2C1=O` gave a logP of 2.08. The compound `CCCCN1C(=O)C(=O)c2ccccc2C1=O` displayed a log partition coefficient (logP) of 2.18. Regarding `CCN1C(=O)C(=O)c2c(C#N)cccc2C1=O`, the logP was determined as 0.41. As to `CCN1C(=O)C(=O)c2ccc(Cl)cc2C1=O`, the logP is 1.79.

In turn, `CCOC(=O)c1cccc2c1C(=O)C(=O)N(CC)C2=O` registered a log partition coefficient (logP) of 1.31. Consider `CCCN1C(=O)C(=O)c2ccccc2C1=O`, for which the logP was found to be 1.6. `CCN1C(=O)C(=O)c2c(cccc2[N+](=O)[O-])C1=O` showed a lipophilicity (logP) of 0.82. On to `CCNC(=O)c1cccc2c1C(=O)C(=O)N(CC)C2=O`, for which the logP is 0.3. `CCN1C(=O)C(=O)c2cc(OC)c(OC)cc2C1=O` gave a logP of 1.31. `CCN(CC)C(=O)c1cccc2c1C(=O)C(=O)N(CC)C2=O` gave a logP of 0.78. Under `O=C1C(=O)N(c2ccccc2)C(=O)c2ccccc21` stands 1.14; under `CCN1C(=O)C(=O)c2c(OC)cc(OC)cc2C1=O`, 1.23. With `CCN1C(=O)C(=O)c2c(Cl)cccc2C1=O`, the logP is 1.43.
